From PubChem BioAssay AID179 (DTP/NCI, 2004)
Where “and” joins values, the source holds several entries; their conditions need not be identical. Equal entries are not always repeated. Calls of active or inactive are those of the source.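 How the source made its calls: active means compounds giving half or more protection of infected cells from virus-caused growth loss, again on retest; inactive means the rest.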 *1 amine or outer side, *2 acyl side, *3 side chain or, on linkers, in order; H or OH if unused. Where a SMILES comes first, the peptide text is derived from it. [ ]: non-standard residue; d: D form. The star is where a group is joined. X3 = CC(=O)N(C)SCC(N[*:1])C(=O)[*:2]; X20 = CC(=O)N(C)SCC(N*)/C(O)=N\O; Cbz = O=C(OCc1ccccc1)*; Bn = c1ccc(C*)cc1; For = O=C*

System: CEM cells HIV-1 protection, formazan growth assay
Test: NCI AIDS Antiviral Assay
Details: for IC50: measured here: growth of uninfected CEM cells
Outline: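 Five concentrations of each compound were applied to infected and uninfected human CEM cells. Protection from HIV-1 was judged from growth measured with a soluble formazan assay.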

| SMILES | outcome | EC50 | IC50 [µM] |
| --- | --- | --- | --- |
| C[As+](C)(C)CC1OC(OCC(O)COS(=O)(=O)[O-])C(O)C1O (stereo not drawn) | inactive | – | – |
| CC(C)C(=O)CC(Sc1ccc(N)cc1)c1ccccc1 (stereo not drawn) | – | > 200 µM | 87.1 |
| CC(=O)SC1CC(=O)OC1=O (stereo not drawn) | – | > 200 µM | > 200 |
| CN1CCC2(CC1)C(=O)N(N1CCCCCC1)C(=O)N2c1ccccc1 | – | > 200 µM | > 200 |
| Cc1cc(C)nc(NC(=S)Nc2ccccc2Cl)c1 | – | > 200 µM | > 200 |
| N#CC1(C#N)N[C@@H](c2ccsc2)[C@H]2C(=O)N(c3ccccc3)C(=O)[C@H]21 | – | > 200 µM | 53.7 |
| COc1cccc2c1C(=O)c1ccc3cc(CO)cc(O)c3c1C2=O | – | > 200 µM | 1.12 |
| O=C1CCC2CCC1C2 (stereo not drawn) | – | > 200 µM | > 200 |
| CN(O)C(=O)Cc1ccc(OCc2cccc(Cl)c2)cc1 | – | > 200 µM | > 200 |
| S=C(N/N=C\C=N/NC(=S)N1CCCCC1)N1CCCCC1 | – | > 2 µM | 0.363 |
| Cc1c(C)c(C)n(C2OC(CO)C(O)C(O)C2O)c(=S)c1C#N (stereo not drawn) | – | > 100 µM | > 100 |
| CN(C)CCCNc1cc[n+](C)c2cccc([N+](=O)[O-])c12 | – | > 200 µM | 10.5 |
| COC(=O)C1CCC(=O)N1C(c1cc(OC)c(OC)c(OC)c1)c1cc(OC)c(OC)c(OC)c1 (stereo not drawn) | – | > 200 µM | 55 |
| CC1=NOCC(=O)N1 | – | > 2190 µM | > 2190 |
| CC(=O)N(C)SCC(NC(=O)C(Cc1ccccc1)NC(=O)OCc1ccccc1)C(=O)NC(Cc1ccccc1)C(=O)NC(Cc1cn(C=O)c2ccccc12)C(=O)NC(CCCCNC(=O)OCc1ccccc1)C(=O)NC(C(=O)NC(CSN(C)C(C)=O)/C(O)=N\O)C(C)OCc1ccccc1 (stereo not drawn) (Cbz-F[X3]FW(For)K(Cbz)T(Bn)-X20; configuration not given here) | inactive | – | – |
| CC(=O)N1N=C(c2ccc3ccccc3c2O)CC1c1ccc(Cl)cc1Cl (stereo not drawn) | – | > 200 µM | 22.9 |
| O=C1CSC(=S)N1c1ccc2c(c1)OCO2 | – | > 200 µM | 79.4 |
| C[N+](C)(C)CCOP(=O)(O)OP(=O)([O-])OCC1CCC(n2ccc(N)nc2=O)O1 (stereo not drawn) | – | 0.575 µM and 0.178 µM | > 200 |
| Cc1nc(N)nc(N)c1N1CCN(c2ccc([N+](=O)[O-])cc2)CC1 | – | > 100 µM | 27.5 |
| CC(Oc1ccc(OCC2CCCCC2)cc1)C(=O)OCC(=O)c1ccc(-c2ccccc2)cc1 (stereo not drawn) | – | > 20.9 µM | > 20.9 |
| CCC(C)C1C(=O)ON=C1N (stereo not drawn) | – | > 200 µM | > 200 |
| [NH-]C(CCC(N)=O)C(=O)O.[NH-]C(CCCCN)C(=O)O.[Zn+2] (stereo not drawn) | – | > 200 µM | > 200 |
| S=C(Nc1cccc(Cl)c1)Nc1ccccn1 | – | > 200 µM | > 200 |

| SMILES | outcome | EC50 | IC50 [µM] |
| --- | --- | --- | --- |
| O=C(O)C1=C(O)C(C(=O)O)C23CCCCCCCCCCC12C(C(=O)O)C(O)=C3C(=O)O (stereo not drawn) | inactive | – | – |
| C/C(=N\N=C(N)N)c1sc(-c2nc(C)c(/C(C)=N/N=C(N)N)s2)nc1C | – | > 126 µM | > 126 |
| O=C(Nc1nc(-c2ccccc2)cs1)OCC(Cl)(Cl)Cl | – | > 200 µM | 4.47 |
| CC1OC(OCC2OC(Oc3c(-c4ccc(O)cc4)oc4cc(O)cc(O)c4c3=O)C(OC3OCC(O)(CO)C3O)C(O)C2O)C(O)C(O)C1O (stereo not drawn) | – | > 347 µM | > 347 |
| CCCCCCCCCCNCCSSCc1ccc(OC)cc1 | – | > 200 µM | 3.39 |
| COc1ccc(-c2c(C#N)cnc(C)c2C)c(O)c1OC | – | > 631 µM | 115 |
| CCOP1(OCC)(SSC)OC(=O)C(C)S1 (stereo not drawn) | – | > 813 µM | 617 |
| COc1ccc2c(C3(O)CCNCC3)c[nH]c2c1 | inactive | – | – |
| CCOC(=O)C(=O)Nc1ccc(C)c(C)c1 | – | > 427 µM | > 427 |
| CCN(CC)c1ccc(C(=C2C=CC(=[N+](CC)CC)C=C2)c2ccc(N(CC)CC)cc2)cc1 | inactive | – | – |
| CCOC(=O)NC(N(C)C(C(C)C)P(=O)(OCC)OCC)(C(F)(F)F)C(F)(F)F (stereo not drawn) | – | > 200 µM | > 200 |
| CC(=O)OCC1OC(n2c(C)cc(-c3cccc4ccccc34)c(C#N)c2=S)C(OC(C)=O)C(OC(C)=O)C1OC(C)=O (stereo not drawn) | – | > 200 µM | 21.4 |
| COc1ccccc1NC(=O)C(CC(C(=O)Nc1ccccc1OC)/C(C)=N/Nc1ccc([N+](=O)[O-])cc1[N+](=O)[O-])/C(C)=N/Nc1ccc([N+](=O)[O-])cc1[N+](=O)[O-] (stereo not drawn) | – | > 9.12 µM | > 9.12 |
| N=C(N)C1CN(CC=O)C(=O)NC1=O (stereo not drawn) | – | > 200 µM | > 200 |
| CC(C)(C)OC(=O)c1ccc(NCC2=CC(=O)C=CC2=O)cc1 | – | > 200 µM | 10.2 |
| O=P1(Oc2ccccc2)C(c2ccccc2)C(c2ccccc2)=NN1c1ccccc1 (stereo not drawn) | – | > 12.3 µM | > 12.3 |
| Cc1cc(C)c2cc(N)c(Cl)nc2n1 | – | > 200 µM | 145 |
| NC(=O)CC(NC(=O)c1ccccc1SC(=O)CCCC[n+]1ccccc1)C(N)=O (stereo not drawn) | – | 32.4 µM | > 200 |
| COCC1C(=O)c2cc3c(cc2C12C=CC1(C=C2)OCCO1)OCO3 (stereo not drawn) | – | > 275 µM | 11 |
| COC(=O)c1cc(C(=CCC(=O)O)c2cc(Cl)c(OC)c(C(=O)OC)c2)cc(Cl)c1OC | – | > 200 µM | 97.7 |
| CN(C)C=Nc1cccc2nsnc12 | – | > 200 µM | > 200 |
| COC(=O)CCC12CCC(O1)c1ccccc12 (stereo not drawn) | – | > 200 µM | > 200 |
| Cc1[nH]c(=O)n2c(C)nnc2c1C(=O)O | inactive | – | – |

| SMILES | outcome | EC50 | IC50 [µM] |
| --- | --- | --- | --- |
| C=CC12CN3C4C3C1C1(CCC42)C(=O)N(COCC[Si](C)(C)C)c2ccccc21 (stereo not drawn) | – | > 63.1 µM | 25.7 |
| COC(=O)c1ccc(C)cc1CC1Cc2cc(C)ccc2C1=O (stereo not drawn) | – | > 200 µM | > 200 |
| CCC(=O)NC(C(=O)NC(C(=O)NC(CC(C)C)C(O)CC(=O)NC(C)C(=O)NC(CC(C)C)C(O)CC(=O)O)C(C)C)C(C)C (stereo not drawn) | – | > 7.59 µM | > 7.59 |
| O=C(NCCCNCCCCNCCCNC(=O)C(F)(F)F)C(F)(F)F | – | > 200 µM | 14.8 |
| C/C(O)=C(\C=N\C(=S)Nc1ccccc1)C(=O)Nc1ccc(Cl)cc1 | inactive | – | – |
| CCOP(=O)(OCC)/C(C#N)=C/c1ccco1 | – | 69.2 µM | > 200 |
| O=CC[C@]12CC(=O)OC(C=CC13OCCO3)C2 | – | > 200 µM | > 200 |
| COc1ccc(SCc2cc(OC)c(OC)c(OC)c2)cc1OC | – | > 200 µM | 45.7 |
| CC(CN(C)C)/C(=N\Nc1ccccc1)c1ccccc1 (stereo not drawn) | inactive | – | – |
| O=C(/C=C/c1ccc(-c2ccccc2)cc1)c1ccccc1 | – | > 13.2 µM | > 13.2 |
| C=CC[C@@]1(C)CCCCCCCCC[C@@](C)(CC=C)C1=O | – | > 200 µM | 115 |
| COc1cc(Cl)c2c3c(c(C(C)=O)oc13)CCC2 | inactive | – | – |
| C=CCCCC(C(=O)OCC)C(=O)OCC | inactive | – | – |
| Oc1cccc(/C=C/c2ccncc2)c1 | – | > 36.3 µM | > 36.3 |
| Cc1cn(C2C=CC(=O)C(C)O2)c(=O)[nH]c1=O (stereo not drawn) | – | > 1050 µM | 6.31 |
| O=C1C=C(NCCc2ccccc2)c2ccccc2C1=O | – | > 36.3 µM | 25.1 |
| CC1=C(C(=O)Nc2ccccc2C)C(c2ccc(N(C)C)cc2)C(C(=O)Nc2ccccc2C)=C(C)N1 | – | > 14.5 µM | > 14.5 |
| Cc1cc(C)nc(NS(=O)(=O)c2ccc(NNC(=O)c3cccc4c(NNc5ccc(S(=O)(=O)Nc6nc(C)cc(C)n6)cc5)c5ccccc5nc34)cc2)n1 | – | > 200 µM | 21.9 |
| N#Cc1c(N)c(C(=O)Nc2ccccc2)n2c1CCCC2 | – | > 200 µM | > 200 |
| CCCCCCCCCCCCCCCC(=O)NCC(COP(=O)([O-])OCC[N+](C)(C)C)OC (stereo not drawn) | inactive | – | – |
| CNn1c(-c2ccc(C)cc2)n[nH]c1=O | – | 49 µM | 56.2 |
| CC(=O)NNC(=S)N/C=C(\C#N)S(=O)(=O)c1ccc(C)cc1 | inactive | – | – |
| COC(CC1(/C=C/O[Si](C(C)C)(C(C)C)C(C)C)C(=O)N(COCC[Si](C)(C)C)c2ccccc21)OC (stereo not drawn) | – | > 200 µM | 36.3 |

| SMILES | outcome | EC50 | IC50 [µM] |
| --- | --- | --- | --- |
| Cc1cnnc2c3ccccc3nn12 | – | > 123 µM | > 123 |
| CCCCC#COP(=O)(OCC)OCC | – | > 251 µM | > 251 |
| COc1cccc(NC(=O)CSc2nnc(-c3ccc(NC(C)=O)cc3)o2)c1 | – | > 64.6 µM | > 64.6 |
| Cc1cc(S(=O)(=O)NC2=NC(c3ccccc3)c3ccccc3N2)c(S)cc1Cl (stereo not drawn) | – | > 200 µM | > 200 |
| CCOc1ccc(NC(=O)CC2SC(=Nc3ccc(C)cc3)NC2=O)cc1 (stereo not drawn) | – | > 67.6 µM | > 67.6 |
| Cc1ccc(C2=Nn3c(nc4sc5c(c4c3=O)CCCC5)SC2)cc1 | – | > 200 µM | > 200 |
| Cc1cc2c(cc1Cl)SC(NN(C)C)=NS2(=O)=O | – | > 200 µM | 117 |
| CC1(C)CC2=C(Sc3ccccc3N2)C(=O)C1C(=O)C(=O)Nc1cc(Cl)ccc1Cl (stereo not drawn) | – | > 148 µM | 64.6 |
| CCOC(=O)C(COS(C)(=O)=O)(COS(C)(=O)=O)C(=O)OCC | – | > 251 µM | 209 |
| O=C1C(=O)N(c2ccc(Cl)c(Cl)c2)C(=O)C(=O)C1c1nc2ccccc2s1 | inactive | – | – |
| CCN(CC)CCOC(=O)c1c(C)oc2cc3c(C(=O)OCCN(CC)CC)c(C)oc3cc12 | – | > 200 µM | 6.03 |
| CCOC(=O)C(NC(=O)Nc1ccc(Cl)cc1)(OC)C(F)(F)F (stereo not drawn) | inactive | – | – |
| CCCNC(=S)N/N=C/c1cccc(C)n1 | – | > 200 µM | 11 |
| CN1C(=O)C(C)(C)C2(SC(C)(C)C2(C)C)N(C)C1=S (stereo not drawn) | – | > 24 µM | > 24 |
| c1ccc2cc(C3NCCc4[nH]cnc43)ccc2c1 (stereo not drawn) | – | > 28.8 µM | > 28.8 |
| [N-]=[N+]=NC1CC(n2cc(Cc3ccccc3)c(=O)[nH]c2=O)OC1CO (stereo not drawn) | inactive | – | – |
| Cc1ccc(Cc2n[nH]c(=O)n2Nc2ccccc2)cc1 | – | > 200 µM | > 200 |
| O=C(O)c1ccc(CSc2ccc(Cl)cc2)cc1 | – | > 35.5 µM | > 35.5 |
| O=C(O)C1C2C=CC(C(/C=C/c3ccccc3)N2)C1C(=O)O (stereo not drawn) | – | > 200 µM | > 200 |
| Cc1n[n+](CC(=O)c2ccccc2)c2sc(N)nn12 | – | > 200 µM | 132 |
